Experimental data from patent publication US20250325552A1, “SUBSTITUTED THIADIAZOLYL DERIVATIVES AS DNA POLYMERASE THETA INHIBITORS” (IDEAYA Biosciences, Inc., priority 2020, published 2025).

Biological target: Polθ theta (1-899) (hPolQ) (Homo sapiens (Human), UniProt O75417)
Assay: Biological Assay 1: Polθ ATPase activity, NADH oxidation-coupled enzymatic assay (10 nM enzyme, 30 min)
Type: biochemical
Settings: Polθ (1-899) 10 nM, 100 μM ATP, 300 nM dT50 ssDNA; Examples 1 to 268; read-out: ATPase NADH coupling:Standard Screening:hPolQ IC50
Method in brief: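 ATP turnover was coupled to NADH oxidation and followed at 340 nm every minute for 30 min. Enzyme (residues 1-899, 10 nM) sat with compound for 15 min at room temperature before an equal-volume addition of 100 μM ATP plus 300 nM dT50 ssDNA. Progress-curve slopes from 10-point dilutions were fitted by a four-parameter model.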

Polθ theta (1-899) (hPolQ), sequence (O75417 1-899): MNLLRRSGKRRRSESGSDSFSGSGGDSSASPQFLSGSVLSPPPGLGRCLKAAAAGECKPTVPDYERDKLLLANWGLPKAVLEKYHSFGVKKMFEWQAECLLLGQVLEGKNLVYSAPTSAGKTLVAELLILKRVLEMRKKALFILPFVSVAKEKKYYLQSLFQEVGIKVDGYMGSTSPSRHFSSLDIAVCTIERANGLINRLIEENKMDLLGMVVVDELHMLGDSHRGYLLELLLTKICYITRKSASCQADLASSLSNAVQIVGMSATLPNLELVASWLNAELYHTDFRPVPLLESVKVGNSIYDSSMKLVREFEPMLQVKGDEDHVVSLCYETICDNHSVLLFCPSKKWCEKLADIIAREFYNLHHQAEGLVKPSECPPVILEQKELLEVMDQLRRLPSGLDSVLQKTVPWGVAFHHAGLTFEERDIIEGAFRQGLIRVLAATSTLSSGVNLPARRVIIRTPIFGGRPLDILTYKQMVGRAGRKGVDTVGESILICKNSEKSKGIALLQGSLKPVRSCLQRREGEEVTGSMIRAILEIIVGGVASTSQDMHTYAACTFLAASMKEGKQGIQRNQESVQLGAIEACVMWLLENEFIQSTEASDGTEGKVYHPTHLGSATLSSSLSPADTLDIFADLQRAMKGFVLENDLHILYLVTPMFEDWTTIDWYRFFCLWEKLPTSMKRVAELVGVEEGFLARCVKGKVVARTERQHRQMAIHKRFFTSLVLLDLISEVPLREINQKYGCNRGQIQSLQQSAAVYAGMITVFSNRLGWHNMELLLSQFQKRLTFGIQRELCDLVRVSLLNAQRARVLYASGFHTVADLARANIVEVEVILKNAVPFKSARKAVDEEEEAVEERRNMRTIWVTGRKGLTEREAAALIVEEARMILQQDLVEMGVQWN

| Structure (SMILES) | IC50 [nM] |
| --- | --- |
| COc1cnc(Cl)cc1-c1cc(C)ncc1C(=O)Nc1nnc(OCc2ccc([C@H](C)O)cn2)s1 [Example 68, (S)-2′-chloro-N-(5-((5-(1-hydroxyethyl)pyridin-2-yl)methoxy)-1,3,4-thiadiazol-2-yl)-5′-methoxy-6-methyl-(4,4′-bipyridine)-3-carboxamide] | ≤ 200 |
| COc1cnc(Cl)cc1-c1cc(C)ncc1C(=O)Nc1nnc(OC[C@H]2CC[C@H](F)CC2)s1 [Example 197, 2′-chloro-N-(5-(((1r,4r)-4-fluorocyclohexyl)methoxy)-1,3,4-thiadiazol-2-yl)-5′-methoxy-6-methyl-(4,4′-bipyridine)-3-carboxamide] | ≤ 200 |
| CN=[S@](C)(=O)c1ccc(COc2nnc(NC(=O)c3cnc(C)cc3-c3c(F)cccc3OC)s2)cc1 [Example 154, N-(5-((4-((R)—N,S-dimethylsulfonimidoyl)benzyl)oxy)-1,3,4-thiadiazol-2-yl)-4-(2-fluoro-6-methoxyphenyl)-6-methylnicotinamide] | ≤ 200 |
| COc1ccc(F)cc1-c1cc(C)ncc1C(=O)Nc1nnc(OCc2ccc(C(C)(C)O)cn2)s1 [Example 63, 4-(5-fluoro-2-methoxyphenyl)-N-(5-((5-(2-hydroxypropan-2-yl)pyridin-2-yl)methoxy)-1,3,4-thiadiazol-2-yl)-6-methylnicotinamide] | ≤ 200 |
| COc1cnc(Cl)cc1-c1cc(C)ncc1C(=O)Nc1nnc(OC[C@H]2COCC(C)(C)O2)s1 (single isomer, unassigned) [Example 221] | ≤ 200 |
| COc1cccc(F)c1-c1cc(C)ncc1C(=O)Nc1nnc(OCc2ccc(C(C)(C)O)cn2)s1 [Example 33, 4-(2-fluoro-6-methoxyphenyl)-N-(5-((5-(2-hydroxypropan-2-yl)pyridin-2-yl)methoxy)-1,3,4-thiadiazol-2-yl)-6-methylnicotinamide] | ≤ 200 |
| Cc1cc(-c2c(F)cccc2OC(F)F)c(C(=O)Nc2nnc(OCc3ccc4c(n3)OCCO4)s2)cn1 [Example 47, 4-(2-(difluoromethoxy)-6-fluorophenyl)-N-(5-((2,3-dihydro-(1,4)dioxino(2,3-b)pyridin-6-yl)methoxy)-1,3,4-thiadiazol-2-yl)-6-methylnicotinamide] | ≤ 200 |
| COc1cnc(Br)cc1-c1cc(C)ncc1C(=O)Nc1nnc(OC[C@H]2COCCO2)s1 [Example 236, (R)—N-(5-((1,4-dioxan-2-yl)methoxy)-1,3,4-thiadiazol-2-yl)-2′-bromo-5′-methoxy-6-methyl-(4,4′-bipyridine)-3-carboxamide] | ≤ 200 |
| COc1cnc(Cl)cc1-c1cc(C)ncc1C(=O)Nc1nnc(OCC2(C)COC2)s1 [Example 162, 2′-chloro-5′-methoxy-6-methyl-N-(5-((3-methyloxetan-3-yl)methoxy)-1,3,4-thiadiazol-2-yl)-(4,4′-bipyridine)-3-carboxamide] | ≤ 200 |
| COc1cnc(Cl)cc1-c1cc(C)ncc1C(=O)Nc1nnc(OC[C@H]2COC3(CCC3)C2)s1 (single isomer, unassigned) [Example 227] | ≤ 200 |
| COc1cccc(F)c1-c1cncnc1C(=O)Nc1nnc(OCc2ccc(CO)cn2)s1 [Example 37, 5-(2-fluoro-6-methoxyphenyl)-N-(5-((5-(hydroxymethyl)pyridin-2-yl)methoxy)-1,3,4-thiadiazol-2-yl)pyrimidine-4-carboxamide] | ≤ 200 |
| COc1cnc(Cl)cc1-c1cc(C)ncc1C(=O)Nc1nnc(OCC2CCN(C)C2)s1 (stereo not drawn) [Example 176, 2′-chloro-5′-methoxy-6-methyl-N-(5-((1-methylpyrrolidin-3-yl)methoxy)-1,3,4-thiadiazol-2-yl)-(4,4′-bipyridine)-3-carboxamide] | 200 to 500 |
| COc1cnc(Cl)cc1-c1cc(C)ncc1C(=O)Nc1nnc(OCC2(C#N)CC2)s1 [Example 205, 2′-chloro-N-(5-((1-cyanocyclopropyl)methoxy)-1,3,4-thiadiazol-2-yl)-5′-methoxy-6-methyl-(4,4′-bipyridine)-3-carboxamide] | ≤ 200 |
| Cc1cc(-c2ccccc2OC(F)F)c(C(=O)Nc2nnc(OCc3ccc(CO)cn3)s2)cn1 [Example 17, 4-(2-(difluoromethoxy)phenyl)-N-(5-((5-(hydroxymethyl)pyridin-2-yl)methoxy)-1,3,4-thiadiazol-2-yl)-6-methylpyridine-3-carboxamide] | ≤ 200 |
| COc1cnc(Cl)cc1-c1cc(C)ncc1C(=O)Nc1nnc(OCC2CC3(COC3)C2)s1 [Example 172, N-(5-((2-oxaspiro(3.3)heptan-6-yl)methoxy)-1,3,4-thiadiazol-2-yl)-2′-chloro-5′-methoxy-6-methyl-(4,4′-bipyridine)-3-carboxamide] | ≤ 200 |
| COc1cccc(F)c1-c1cc(C)ncc1C(=O)Nc1nnc(OCc2cnc([C@@H](C)O)cn2)s1 [Example 111, 4-(2-fluoro-6-methoxyphenyl)-N-(5-((5-((R)-1-hydroxyethyl)pyrazin-2-yl)methoxy)-1,3,4-thiadiazol-2-yl)-6-methylnicotinamide] | ≤ 200 |
| COc1cccc(F)c1-c1cc(C)ncc1C(=O)Nc1nnc(OCc2ccc(C3CCO3)cn2)s1 (stereo not drawn) [Example 130, 4-(2-fluoro-6-methoxyphenyl)-6-methyl-N-(5-((5-(oxetan-2-yl)pyridin-2-yl)methoxy)-1,3,4-thiadiazol-2-yl)nicotinamide] | ≤ 200 |

| Structure (SMILES) | IC50 [nM] |
| --- | --- |
| COc1ccc(COc2nnc(NC(=O)c3cnc(C)cc3-c3c(F)cccc3OC(F)F)s2)nc1 [Example 46, 4-(2-(difluoromethoxy)-6-fluorophenyl)-N-(5-((5-methoxypyridin-2-yl)methoxy)-1,3,4-thiadiazol-2-yl)-6-methylnicotinamide] | ≤ 200 |
| COc1cnc(Cl)cc1-c1cc(C)ncc1C(=O)Nc1nnc(OC[C@@H]2COC[C@@H]2C)s1 (single isomer, unassigned) [Example 265] | ≤ 200 |
| COc1cccc(F)c1-c1cc(C)ncc1C(=O)Nc1nnc(OCc2ccn(C)n2)s1 [Example 15, 4-(2-fluoro-6-methoxyphenyl)-6-methyl-N-(5-((1-methylpyrazol-3-yl)methoxy)-1,3,4-thiadiazol-2-yl)pyridine-3-carboxamide] | ≤ 200 |
| COc1cnc(Cl)cc1-c1cc(C)ncc1C(=O)Nc1nnc(OC[C@H]2CO[C@H](C)C2)s1 (single isomer, unassigned) [Example 252] | ≤ 200 |
| COc1cccc(F)c1-c1cc(C)ncc1C(=O)Nc1nnc(OCc2ccc3c(n2)CCC[C@H]3O)s1 [Example 117, 4-(2-fluoro-6-methoxyphenyl)-N-(5-(((R)-5-hydroxy-5,6,7,8-tetrahydroquinolin-2-yl)methoxy)-1,3,4-thiadiazol-2-yl)-6-methylnicotinamide] | ≤ 200 |
| COc1cnc(Cl)cc1-c1cc(C)ncc1C(=O)Nc1nnc(OC[C@H]2CCC[C@@H]2O)s1 (single isomer, unassigned) [Example 256, 2′-chloro-N-(5-((2-hydroxycyclopentyl)methoxy)-1,3,4-thiadiazol-2-yl)-5′-methoxy-6-methyl-(4,4′-bipyridine)-3-carboxamide] | ≤ 200 |
| COc1cnc(Cl)cc1-c1cc(C)ncc1C(=O)Nc1nnc(OC[C@H]2CO[C@@H](C)C2)s1 (single isomer, unassigned) [Example 251] | ≤ 200 |
| COc1cccc(F)c1-c1cc(C)ncc1C(=O)Nc1nnc(OCc2ccc(C(C)(C)OC)cn2)s1 [Example 80, 4-(2-fluoro-6-methoxyphenyl)-N-(5-((5-(2-methoxypropan-2-yl)pyridin-2-yl)methoxy)-1,3,4-thiadiazol-2-yl)-6-methylnicotinamide] | ≤ 200 |
| COc1cccc(F)c1-c1cc(C)ncc1C(=O)Nc1nnc(OCc2ccc(OC(F)F)cn2)s1 [Example 49, N-(5-((5-(difluoromethoxy)pyridin-2-yl)methoxy)-1,3,4-thiadiazol-2-yl)-4-(2-fluoro-6-methoxyphenyl)-6-methylnicotinamide] | ≤ 200 |
| COc1cnc(Cl)cc1-c1cc(C)ncc1C(=O)Nc1nnc(OCC2CCOC2)s1 (stereo in doubt) [Example 171, (S)-2′-chloro-5′-methoxy-6-methyl-N-(5-((tetrahydrofuran-3-yl)methoxy)-1,3,4-thiadiazol-2-yl)-(4,4′-bipyridine)-3-carboxamide] | ≤ 200 |
| COc1cnc(Cl)cc1-c1cc(C)ncc1C(=O)Nc1nnc(OC[C@H]2C[C@@H](O)C2)s1 [Example 193, 2′-chloro-N-(5-(((1s,3s)-3-hydroxycyclobutyl)methoxy)-1,3,4-thiadiazol-2-yl)-5′-methoxy-6-methyl-(4,4′-bipyridine)-3-carboxamide] | ≤ 200 |
| COc1cccc(F)c1-c1cn2ncc(F)c2cc1C(=O)Nc1nnc(OC[C@H]2CC[C@H](O)CC2)s1 [Example 201, 3-fluoro-6-(2-fluoro-6-methoxyphenyl)-N-(5-(((1r,4r)-4-hydroxycyclohexyl)methoxy)-1,3,4-thiadiazol-2-yl)pyrazolo(1,5-a)pyridine-5-carboxamide] | ≤ 200 |
| COc1cnc(Cl)cc1-c1cc(C)ncc1C(=O)Nc1nnc(OC[C@H]2CC[C@H](O)C2)s1 (single isomer, unassigned) [Example 208] | ≤ 200 |
| COc1ccc(COc2nnc(NC(=O)c3cnc(C)cc3-c3cc(Cl)ncc3OC)s2)nc1 [Example 45, 2′-chloro-5′-methoxy-N-(5-((5-methoxypyridin-2-yl)methoxy)-1,3,4-thiadiazol-2-yl)-6-methyl-(4,4′-bipyridine)-3-carboxamide] | ≤ 200 |
| COc1cnc(Cl)cc1-c1cc(C)ncc1C(=O)Nc1nnc(OC[C@H]2COC(C)(C)CO2)s1 (single isomer, unassigned) [Example 223] | ≤ 200 |
| COc1cccc(F)c1-c1cc(C)ncc1C(=O)Nc1nnc(OCc2ccc(S(C)(=N)=O)cc2)s1 (racemic) [Example 79, 4-(2-fluoro-6-methoxyphenyl)-6-methyl-N-(5-((4-(S-methylsulfonimidoyl)benzyl)oxy)-1,3,4-thiadiazol-2-yl)nicotinamide] | ≤ 200 |
